Results reported in the supplement of paper PMC10307832.

Compound: CC1=CC(=C(N1C2=CC=C(C=C2)Cl)C)C(=O)CN3CCCCC3 [IU1-47] + C[C@@H](Oc1cc(-c2cnn(C3CCNCC3)c2)cnc1N)c1c(Cl)ccc(F)c1Cl [Crizotinib] (partner 1 µM)
Assay: relative viability (nuclei count vs DMSO), 5 days (fraction); higher = more cells survive
Settings: first compound 0.08 µM
Procedure, shortened: (§1)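 Lung cancer cell lines were pin-tool dosed in 1536-well plates on the day after seeding, with either a lone drug or a fixed anchor-drug dose plus five library-drug doses (not always all listed) in √10 steps. Nuclei were counted on 4× images after 5 days. Relative viability is the ratio of treated-well to vehicle-well nuclei counts, with each value a median of duplicate plates.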

Cell Line | relative viability
SW 1573 | 0.728
NCI-H838 | 0.858
LCLC-103H | 1.15
NCI-H520 | 0.815
NCI-H2126 | 1.08
EMC-BAC-2 | 0.802
NCI-H2085 | 0.911
Calu-6 | 0.838
HCC-366 | 0.38
NCI-H1666 | 0.948
NCI-H596 | 1.01
LK-2 | 0.204
NCI-H2087 | 1.01
SK-MES-1 | 1.08
H3255 | 0.989
COR-L23 | 0.735
COR-L 105 | 0.793
LOU-NH91 | 0.739
ChaGo-K-1 | 1.04
NCI-H2170 | 1.42
NCI-H2405 | 0.901
HOP-62 | 0.918
HCC-44 | 0.801
A549 | 0.685
LU99A | 0.503
NCI-H441 | 0.778
NCI-H1299 | 0.965

Same assay, conditions: first compound 0.253 µM

Cell Line | relative viability
NCI-H1650 | 0.969
EBC-1 | 0.202
NCI-H1703 | 0.917
NCI-H1993 | 0.84
SW 1573 | 0.796
NCI-H838 | 0.895
LCLC-103H | 1.06
NCI-H520 | 0.984
NCI-H2126 | 1.08
EMC-BAC-2 | 0.863
NCI-H2085 | 0.847
Calu-6 | 0.829
HCC-366 | 0.633
NCI-H1666 | 0.914
NCI-H596 | 1.07
LK-2 | 0.223

Cell Line | relative viability
NCI-H2087 | 0.83
SK-MES-1 | 1.04
H3255 | 1.07
COR-L23 | 0.704
COR-L 105 | 0.839
IA-LM | 0.974
LOU-NH91 | 0.808
ChaGo-K-1 | 1.21
NCI-H2170 | 1.44
NCI-H2405 | 0.837
HOP-62 | 0.873
HCC-44 | 0.784
A549 | 0.847
LU99A | 0.538
NCI-H441 | 0.887
NCI-H1299 | 0.93

Same assay, conditions: first compound 0.8 µM

Cell Line | relative viability
NCI-H727 | 0.857
NCI-H1650 | 0.802
EBC-1 | 0.209
NCI-H1703 | 0.426
NCI-H1993 | 0.965
SW 1573 | 0.761
NCI-H838 | 0.844
LCLC-103H | 1.06
NCI-H520 | 0.627
NCI-H2126 | 1.03
EMC-BAC-2 | 0.752
NCI-H2085 | 0.851
Calu-6 | 0.692
HCC-366 | 0.562
NCI-H1666 | 0.927
NCI-H596 | 1.04
LK-2 | 0.223

Cell Line | relative viability
NCI-H2087 | 0.947
SK-MES-1 | 0.908
H3255 | 0.908
COR-L23 | 0.669
COR-L 105 | 0.767
IA-LM | 0.942
LOU-NH91 | 0.733
ChaGo-K-1 | 1.24
NCI-H2170 | 1.26
NCI-H2405 | 0.778
HOP-62 | 0.901
HCC-44 | 0.809
A549 | 0.607
LU99A | 0.538
NCI-H441 | 0.813
NCI-H1299 | 0.977

Same assay, conditions: first compound 2.53 µM

Cell Line | relative viability
NCI-H727 | 0.798
NCI-H1650 | 1.16
EBC-1 | 0.172
NCI-H1703 | 1.15
NCI-H1993 | 0.85
SW 1573 | 0.859
NCI-H838 | 1.03
LCLC-103H | 1.05
NCI-H520 | 0.8
NCI-H2126 | 0.813
EMC-BAC-2 | 0.835
NCI-H2085 | 0.869
Calu-6 | 1.02
NCI-H1666 | 0.991
NCI-H596 | 0.95
LK-2 | 0.213

Cell Line | relative viability
NCI-H2087 | 1.04
SK-MES-1 | 0.984
H3255 | 0.778
COR-L23 | 0.817
COR-L 105 | 0.94
IA-LM | 1.1
LOU-NH91 | 0.708
ChaGo-K-1 | 1.31
NCI-H2170 | 1.11
NCI-H2405 | 0.878
HOP-62 | 0.441
HCC-44 | 0.77
A549 | 0.612
LU99A | 0.739
NCI-H441 | 0.889
NCI-H1299 | 0.972

Same assay, conditions: first compound 8 µM

Cell Line | relative viability
NCI-H727 | 0.658
NCI-H1650 | 0.857
EBC-1 | 0.229
NCI-H1703 | 1.11
NCI-H1993 | 0.864
SW 1573 | 0.903
NCI-H838 | 0.669
LCLC-103H | 1.09
NCI-H520 | 0.499
NCI-H2126 | 0.972
EMC-BAC-2 | 0.75
NCI-H2085 | 0.739
Calu-6 | 0.665
HCC-366 | 0.393
NCI-H1666 | 1.08
NCI-H596 | 0.943
LK-2 | 0.255

Cell Line | relative viability
NCI-H2087 | 0.806
SK-MES-1 | 0.994
H3255 | 0.807
COR-L23 | 0.609
COR-L 105 | 0.627
IA-LM | 0.644
LOU-NH91 | 0.769
ChaGo-K-1 | 0.954
NCI-H2170 | 1.25
NCI-H2405 | 0.836
HOP-62 | 0.971
HCC-44 | 0.799
A549 | 0.579
LU99A | 0.617
NCI-H441 | 0.775
NCI-H1299 | 0.834

Compound: CC1=CC(=C(N1C2=CC=C(C=C2)Cl)C)C(=O)CN3CCCCC3 [IU1-47] + C[C@]1(O)C[C@@H](c2nc(-c3ccc4ccc(-c5ccccc5)nc4c3)c3c(N)nccn32)C1 [Linsitinib] (partner 1 µM)
Assay: as above
Settings: first compound 0.08 µM
Procedure, shortened: as §1

Cell Line | relative viability
NCI-H727 | 0.315
EBC-1 | 0.664
